The values below are quoted from earlier work in PubChem BioAssay AID1259409 (Chemical Carcinogenesis Research Information System (CCRIS), 2018).

This data set concerns rodent chemically induced tumor inhibition, incidence and multiplicity. In words: CCRIS tumor inhibitor studies. To be noted: Dose [Inhibitor]: 0, Route [Inhibitor]: ORAL.

As for `CC[C@H]1OC(=O)[C@H](C)[C@@H](O[C@H]2C[C@@](C)(OC)[C@@H](O)[C@H](C)O2)[C@H](C)[C@@H](O[C@@H]2O[C@H](C)C[C@H](N(C)C)[C@H]2O)[C@](C)(OC)C[C@@H](C)C(=O)[C@H](C)[C@@H](O)[C@]1(C)O`, the “tumour outcome (control, treated, inhibition, significance)” value runs as follows: (Carcinogen: N-NITROSOBIS(2-HYDROXYPROPYL)AMINE, 53609-64-6, 0.02% IN DIET FOR 8 WK BEGINNING POST CARCINOGEN TREATMENT (STUDY DURATION: 20 WK), Species: RAT, Strain/Sex: WISTAR/MALE, Target Tissue: Type of Lesion: LUNG: ADENOCARCINOMA, Dose [Carcinogen]: 2,000 PPM IN DRINKING WATER FOR 12 WK, Promoter: NONE) 60%, 38%, 37%, not calculated; (Carcinogen: N-NITROSOBIS(2-HYDROXYPROPYL)AMINE, 53609-64-6, 0.02% IN DIET FOR 8 WK BEGINNING POST CARCINOGEN TREATMENT (STUDY DURATION: 20 WK), Species: RAT, Strain/Sex: WISTAR/MALE, Target Tissue: Type of Lesion: LUNG: ADENOMA, Dose [Carcinogen]: 2,000 PPM IN DRINKING WATER FOR 12 WK, Promoter: NONE) 70%, 50%, 29%, not calculated; (Carcinogen: N-NITROSOBIS(2-HYDROXYPROPYL)AMINE, 53609-64-6, 0.02% IN DIET FOR 8 WK BEGINNING POST CARCINOGEN TREATMENT (STUDY DURATION: 20 WK), Species: RAT, Strain/Sex: WISTAR/MALE, Target Tissue: Type of Lesion: LUNG: SQUAMOUS CELL CARCINOMA, Dose [Carcinogen]: 2,000 PPM IN DRINKING WATER FOR 12 WK, Promoter: NONE) 20%, 13%, 35%, not calculated.

On to `Nc1ncn[nH]1`, for which the “tumour outcome (control, treated, inhibition, significance)” value runs as follows: (Carcinogen: DIETHYLSTILBESTROL, 56-53-1, 1500 PPM IN DRINKING WATER 47 D POST FIRST DOSE OF CARCINOGEN (STUDY DURATION: 6 MO), Species: RAT, Strain/Sex: WF/MALE, Target Tissue: Type of Lesion: LIVER: HEPATOCELLULAR CARCINOMA, Dose [Carcinogen]: 5 MG ONTO BACK 1/2 MO FOR 6 MO, Promoter: NONE USED) 1/9 (11%), 0/11 (0%), 100%, not calculated; (Carcinogen: DIETHYLSTILBESTROL, 56-53-1, 1500 PPM IN DRINKING WATER 47 D POST FIRST DOSE OF CARCINOGEN (STUDY DURATION: 6 MO), Species: RAT, Strain/Sex: WF/MALE, Target Tissue: Type of Lesion: PITUITARY: TUMOR, Dose [Carcinogen]: 5 MG ONTO BACK 1/2 MO FOR 6 MO, Promoter: NONE USED) 7/9 (78%), 8/11 (73%), 6%, not significant.

For `C#C[C@]1(O)CC[C@H]2[C@@H]3CCc4cc(CC)ccc4[C@H]3CC[C@@]21C` (tested in a mixture with another compound), the “tumour outcome (control, treated, inhibition, significance)” value by setting is: (Carcinogen: 3-METHYLCHOLANTHRENE, 56-49-5, 1/200 OF A PILL CONTAINING 0.25 UG ETHINYLESTRADIOL AND 5 UG LYNESTRENOL 1/D FOR 60 D (STUDY DURATION: 60 D), Species: MOUSE, Strain/Sex: SWISS/FEMALE, Target Tissue: Type of Lesion: UTERINE CERVIX: TUMOR, Dose [Carcinogen]: 300 UG IN BEESWAX IMPREGNATED COTTON THREAD INSERTED INTO CANAL OF UTERINE CERVIX FOR DURATION OF STUDY, Promoter: NONE USED) 2/23 (9%), 1/27 (4%), 56%, not significant; (Carcinogen: 3-METHYLCHOLANTHRENE, 56-49-5, 1/200 OF A PILL CONTAINING 0.25 UG ETHINYLESTRADIOL AND 5 UG LYNESTRENOL 1/D FOR 90 D (STUDY DURATION: 90 D), Species: MOUSE, Strain/Sex: SWISS/FEMALE, Target Tissue: Type of Lesion: UTERINE CERVIX: TUMOR, Dose [Carcinogen]: 300 UG IN BEESWAX IMPREGNATED COTTON THREAD INSERTED INTO CANAL OF UTERINE CERVIX FOR DURATION OF STUDY, Promoter: NONE USED) 6/23 (26%), 4/20 (20%), 23%, not significant; (Carcinogen: 3-METHYLCHOLANTHRENE, 56-49-5, 1/2000 OF A PILL CONTAINING 0.025 UG ETHINYLESTRADIOL AND 0.5 UG OF LYNESTRENOL 1/D FOR 60 D (STUDY DURATION: 60 D), Species: MOUSE, Strain/Sex: SWISS/FEMALE, Target Tissue: Type of Lesion: UTERINE CERVIX: TUMOR, Dose [Carcinogen]: 300 UG IN BEESWAX IMPREGNATED COTTON THREAD INSERTED INTO CANAL OF UTERINE CERVIX FOR DURATION OF STUDY, Promoter: NONE USED) 2/23 (9%), 1/24 (4%), 56%, not significant; (Carcinogen: 3-METHYLCHOLANTHRENE, 56-49-5, 1/2000 OF A PILL CONTAINING 0.025 UG ETHINYLESTRADIOL AND 0.5 UG OF LYNESTRENOL 1/D FOR 90 D (STUDY DURATION: 90 D), Species: MOUSE, Strain/Sex: SWISS/FEMALE, Target Tissue: Type of Lesion: UTERINE CERVIX: TUMOR, Dose [Carcinogen]: 300 UG IN BEESWAX IMPREGNATED COTTON THREAD INSERTED INTO THE CANAL OF THE UTERINE CERVIX FOR THE DURATION OF STUDY, Promoter: NONE USED) 6/23 (26%), 1/31 (3%), 88%, p<0.05.
